Assay results: patent US7745001B2, “Synthesis of nanoassemblies containing luminescent quantum dots and magnetic nanoparticles” (University of New Orleans Research and Technology …, priority 2004, dated 2010)

Target: Concanavaline A (Con A) (Canavalia ensiformis, UniProt P02866)
Experiment: dextran-Con A binding (dissociation constant)
Text: The glyconanospheres of the present invention can contain dextran molecules (or could contain other polysaccharides) on their surface that interact strongly with carbohydrate binding proteins. These glyconanospheres can be used for real-time monitoring of protein carbohydrate interactions. The inventors in their studies of the present invention focused on lectins, which are sugar binding proteins. In particular the inventors worked with Concanavaline A (Con A) which binds glycosylic residues in carbohydrates with high affinity (the dissociation constant of dextran-Con A was found in studies of the present inventors to be about 1 nanomolar).

dextran
Kd: ~1 nM
